The experiment concerns HCV 1b genotype. Kind of experiment: microbe, parasite or virus in culture. The format is cell-based, Hepatitis C virus. The conditions noted are these: HCV 1b replicon. On the procedure:
An HCV Replicon assay was utilized in the present disclosure, and was prepared, conducted and validated as described in commonly owned PCT/US2006/022197 and in O'Boyle et. al. Antimicrob Agents Chemother. 2005 April; 49(4):1346-53. Assay methods incorporating luciferase reporters have also been used as described (Apath.com).
HCV-neo replicon cells and replicon cells containing resistance substitutions in the NS5A region were used to test the currently described family of compounds.
(In general: Replicon systems follow genome replication, usually without infectious particles.)

Setting [1] is: read-out: Range: EC50 ranges against HCV 1b.
[2] abbreviates: Hepatitis C virus, read-out: 1b (μM): EC50 (Effective 50% inhibitory concentration) against the HCV 1b genotype.
Where [3] appears, read: Hepatitis C virus, read-out: Range: EC50 ranges against HCV 1b.

Like-named read-outs stand apart in the source and are kept apart here.

The values that follow come from patent US9561212B2, “Hepatitis C virus inhibitors” (BRISTOL-MYERS SQUIBB COMPANY, priority 2012, dated 2017).

Take `COC(=O)NC(C(=O)N1[C@@H](C)CC[C@H]1c1ncc(-c2ccc(-c3ccc(-c4cnc([C@@H]5CC[C@H](C)N5C(=O)C(NC(=O)OC)C5CCOC6(CCC6)C5)[nH]4)cc3)cc2)[nH]1)C1CCOC2(CCC2)C1` (single isomer, unassigned) [Example 2.1]: the EC50 under setting [1] fell in the range of 0.9 to 700 nM.

On to `COC(=O)NC(C(=O)N1[C@@H](C)CC[C@H]1c1ncc(-c2ccc(-c3ccc(-c4cnc([C@@H]5CC[C@H](C)N5C(=O)C(NC(=O)OC)C5CCOC6(CCC6)C5)[nH]4)cc3)cc2)[nH]1)C1CCOC2(CCC2)C1` (single isomer, unassigned) [Example 2.2], for which the EC50 under setting [1] was in the range of 0.9 to 700 nM.

For the compound `COC(=O)NC(C(=O)N1[C@@H](C)CC[C@H]1c1ncc(-c2ccc(-c3ccc(-c4cnc([C@@H]5CC[C@H](C)N5C(=O)C(NC(=O)OC)C5CCOC6(CCC6)C5)[nH]4)cc3)cc2)[nH]1)C1CCOC2(CCC2)C1` (single isomer, unassigned) [Example 2.3], the EC50 under setting [2] is 0.00488 nM.

As to `COC(=O)NC(C(=O)N1[C@@H](C)CC[C@H]1c1ncc(-c2ccc(-c3ccc(-c4cnc([C@@H]5CC[C@H](C)N5C(=O)C(NC(=O)OC)C5CCOC6(CCC6)C5)[nH]4)cc3)cc2)[nH]1)C1CCOC2(CCC2)C1` (single isomer, unassigned) [Example 2.4], the EC50 under setting [1] fell in the range of 0.00501 to 0.1 nM.

`COC(=O)NC(C(=O)N1[C@@H](C)CC[C@H]1c1ncc(-c2ccc(-c3ccc(-c4cnc([C@@H]5CC[C@H](C)N5C(=O)C(NC(=O)OC)C5CCOC6(CCCC6)C5)[nH]4)cc3)cc2)[nH]1)C1CCOC2(CCCC2)C1` (single isomer, unassigned) [Example 3.1]: the EC50 under setting [1] lay within 0.9 to 700 nM.

As for `COC(=O)NC(C(=O)N1[C@@H](C)CC[C@H]1c1ncc(-c2ccc(-c3ccc(-c4cnc([C@@H]5CC[C@H](C)N5C(=O)C(NC(=O)OC)C5CCOC6(CCCC6)C5)[nH]4)cc3)cc2)[nH]1)C1CCOC2(CCCC2)C1` (single isomer, unassigned) [Example 3.2], the EC50 under setting [1] lay within 0.9 to 700 nM.

Consider `COC(=O)NC(C(=O)N1[C@@H](C)CC[C@H]1c1ncc(-c2ccc(-c3ccc(-c4cnc([C@@H]5CC[C@H](C)N5C(=O)C(NC(=O)OC)C5CCOC6(CCCC6)C5)[nH]4)cc3)cc2)[nH]1)C1CCOC2(CCCC2)C1` (single isomer, unassigned) [Example 3.3], for which the EC50 was 0.00501 to 0.1 nM under setting [1] and 0.00504 nM under setting [2].

For the compound `COC(=O)NC(C(=O)N1[C@@H](C)CC[C@H]1c1ncc(-c2ccc(-c3ccc(-c4cnc([C@@H]5CC[C@H](C)N5C(=O)C(NC(=O)OC)C5CCOC6(CCCC6)C5)[nH]4)cc3)cc2)[nH]1)C1CCOC2(CCCC2)C1` (single isomer, unassigned) [Example 3.4], the EC50 under setting [1] lay in the range of 0.00501 to 0.1 nM.

With `COC(=O)N[C@H](C(=O)N1C(CO)CCC1c1ncc(-c2ccc(-c3ccc(-c4cnc(C5CCC(CO)N5C(=O)[C@@H](NC(=O)OC)C5C[C@@H](C)O[C@H](C)C5)[nH]4)cc3)cc2)[nH]1)C1C[C@@H](C)O[C@H](C)C1` (single isomer, unassigned) [Example 11.1], under setting [3], the EC50 fell in the range of 0.9 to 700 nM.

Take `COC(=O)N[C@H](C(=O)N1[C@@H](CO)CC[C@H]1c1ncc(-c2ccc(-c3ccc(-c4cnc([C@@H]5CC[C@H](CO)N5C(=O)[C@@H](NC(=O)OC)C5C[C@@H](C)O[C@H](C)C5)[nH]4)cc3)cc2)[nH]1)C1C[C@@H](C)O[C@H](C)C1` (single isomer, unassigned) [Example 11]: the EC50 under setting [3] lay in the range of 0.9 to 700 nM.

With `COC(=O)NC(C(=O)N1[C@@H]2C[C@@H]2C[C@H]1c1nc(-c2ccc(-c3ccc(-c4c[nH]c([C@@H]5C[C@H]6C[C@H]6N5C(=O)C(NC(=O)OC)C5[C@H]6COC[C@@H]56)n4)cc3)cc2)c[nH]1)C1[C@H]2COC[C@@H]12` (single isomer, unassigned; diastereomer 1) [QC4.1], the EC50 under setting [1] lay in the range of 0.00501 to 0.1 nM.

Turning to `COC(=O)NC(C(=O)N1[C@@H]2C[C@@H]2C[C@H]1c1nc(-c2ccc(-c3ccc(-c4c[nH]c([C@@H]5C[C@H]6C[C@H]6N5C(=O)C(NC(=O)OC)C5C[C@@H]6[C@H](C5)C6(F)F)n4)cc3)cc2)c[nH]1)C1C[C@@H]2[C@H](C1)C2(F)F` (single isomer, unassigned; diastereomer 2) [QC2.2], the EC50 under setting [1] is 0.00501 to 0.1 nM.

For `COC(=O)NC(C(=O)N1[C@@H]2C[C@@H]2C[C@H]1c1nc(-c2ccc(-c3ccc(-c4c[nH]c([C@@H]5C[C@H]6C[C@H]6N5C(=O)C(NC(=O)OC)C5C[C@@H]6C[C@@H]6C5)n4)cc3)cc2)c[nH]1)C1C[C@@H]2C[C@@H]2C1` (single isomer, unassigned; diastereomer 2) [QC3.2], the EC50 under setting [1] lay in the range of 0.00501 to 0.1 nM.

`COC(=O)NC(C(=O)N1[C@@H]2C[C@@H]2C[C@H]1c1nc(-c2ccc(-c3ccc(-c4c[nH]c([C@@H]5C[C@H]6C[C@H]6N5C(=O)C(NC(=O)OC)C5[C@H]6COC[C@@H]56)n4)cc3)cc2)c[nH]1)C1[C@H]2COC[C@@H]12` (single isomer, unassigned; diastereomer 2) [QC4.2]: under setting [1], the EC50 is 0.1 to 0.9 nM.

Regarding `COC(=O)N[C@@H](C(=O)N1C(c2nc(-c3ccc(-c4ccc(-c5c[nH]c(C6C[C@H]7CC7N6C(=O)[C@H](NC(=O)OC)C6C[C@@H]7[C@H](C6)C7(F)F)n5)cc4)cc3)c[nH]2)C[C@H]2CC21)C1C[C@@H]2[C@H](C1)C2(F)F` (single isomer, unassigned; diastereomer 3) [QC2.3], the EC50 runs as follows: (read-out: 1b (μM): EC50 (Effective 50% inhibitory concentration) against the HCV 1b genotype) 1.08 nM; under setting [1], 0.9 to 700 nM.

`COC(=O)N[C@@H](C(=O)N1[C@@H]2C[C@@H]2C[C@H]1c1nc(-c2ccc(-c3ccc(-c4c[nH]c([C@@H]5C[C@H]6C[C@H]6N5C(=O)[C@H](NC(=O)OC)[C@H]5C[C@H]6C[C@H]6C5)n4)cc3)cc2)c[nH]1)[C@H]1C[C@H]2C[C@H]2C1` (single isomer, unassigned; diastereomer 3) [QC3.3]: the EC50 under setting [1] lay within 0.1 to 0.9 nM.

Take `COC(=O)NC(C(=O)N1[C@@H]2C[C@@H]2C[C@H]1c1nc(-c2ccc(-c3ccc(-c4c[nH]c([C@@H]5C[C@H]6C[C@H]6N5C(=O)C(NC(=O)OC)[C@H]5C[C@@H]6C[C@@H]6C5)n4)cc3)cc2)c[nH]1)[C@H]1C[C@@H]2C[C@@H]2C1` (single isomer, unassigned; diastereomer 3) [QC5.3]: the EC50 reads like this: under setting [2], 0.00555 nM; under setting [3], 0.00501 to 0.1 nM.

`COC(=O)NC(C(=O)N1C(c2nc(-c3ccc(-c4ccc(-c5c[nH]c([C@@H]6CC[C@H](C)N6C(=O)C(NC(=O)OC)C6CCC7(CC7)OC6)n5)cc4)cc3)c[nH]2)CC[C@@H]1C)C1CCC2(CC2)OC1` (some centres unmarked) [Example 1.1]: under setting [3], the EC50 lay within 0.00501 to 0.1 nM.

`COC(=O)NC(C(=O)N1C(c2nc(-c3ccc(-c4ccc(-c5c[nH]c([C@@H]6CC[C@H](C)N6C(=O)C(NC(=O)OC)C6CCC7(CC7)OC6)n5)cc4)cc3)c[nH]2)CC[C@@H]1C)C1CCC2(CC2)OC1` (some centres unmarked) [Example 1.2]: under setting [1], the EC50 is 0.00501 to 0.1 nM.

`C=C1CC(C(NC(=O)OC)C(=O)N2[C@@H](C)CC[C@H]2c2ncc(-c3ccc(-c4ccc(-c5cnc([C@@H]6CC[C@H](C)N6C(=O)C(NC(=O)OC)C6CC(=C)C6)[nH]5)cc4)cc3)[nH]2)C1` (some centres unmarked) [Example 4.2]: the EC50 reads like this: under setting [2], 0.243 nM; under setting [3], 0.1 to 0.9 nM.

Consider `COC(=O)NC(C(=O)N1[C@@H](C)CC[C@H]1c1ncc(-c2ccc(-c3ccc(-c4cnc([C@@H]5CC[C@H](C)N5C(=O)C(NC(=O)OC)C5CC6(CC6)C5)[nH]4)cc3)cc2)[nH]1)C1CC2(CC2)C1` (some centres unmarked) [Example 5.2], for which the EC50 is 9.07 nM under setting [2] and 0.9 to 700 nM under setting [3].

Turning to `COC(=O)N[C@H](C(=O)N1[C@@H](C)CC[C@H]1c1ncc(-c2ccc(-c3ccc(-c4cnc([C@@H]5CC[C@H](C)N5C(=O)[C@@H](NC(=O)OC)[C@@H]5CCO[C@@H](C6CC6)C5)[nH]4)cc3)cc2)[nH]1)[C@@H]1CCO[C@@H](C2CC2)C1` [Example 6], the EC50 under setting [3] was in the range of 0.00501 to 0.1 nM.

With `COC(=O)N[C@H](C(=O)N1[C@@H](C)CC[C@H]1c1ncc(-c2ccc(-c3ccc(-c4cnc([C@@H]5CC[C@H](C)N5C(=O)[C@@H](NC(=O)OC)[C@@H]5CCO[C@H](C6CC6)C5)[nH]4)cc3)cc2)[nH]1)[C@@H]1CCO[C@H](C2CC2)C1` [Example 7], under setting [3], the EC50 fell in the range of 0.00501 to 0.1 nM.

As to `COC(=O)N[C@H](C(=O)N1[C@@H](CF)CC[C@H]1c1ncc(-c2ccc(-c3ccc(-c4cnc([C@@H]5CC[C@H](CF)N5C(=O)[C@@H](NC(=O)OC)[C@H]5CCOC6(CC6)C5)[nH]4)cc3)cc2)[nH]1)[C@H]1CCOC2(CC2)C1` [Example 8], under setting [3], the EC50 lay within 0.00501 to 0.1 nM.

Consider `COC(=O)N[C@H](C(=O)N1[C@@H](C)CC[C@H]1c1ncc(-c2ccc(-c3ccc(-c4cnc([C@@H]5CC[C@H](C)N5C(=O)[C@@H](NC(=O)OC)[C@H]5C[C@H](C)O[C@@H](C6CC6)C5)[nH]4)cc3)cc2)[nH]1)[C@H]1C[C@H](C)O[C@@H](C2CC2)C1` [Example 9.3, dimethyl ((S,R,S,1S,1′S)-((2S,2′S,5S,5′S)-5,5′-(5,5′-([1,1′-biphenyl]-4,4′-diyl)bis(1H-imidazole-5,2-diyl))bis(2-methylpyrrolidine-5,1-diyl))bis(1-((2R,4S,6S)-2-cyclopropyl-6-methyltetrahydro-2H-pyran-4-yl)-2-oxoethane-2,1-diyl))dicarbamate], for which the EC50 under setting [3] lay in the range of 0.00501 to 0.1 nM.

With `COC(=O)N[C@H](C(=O)N1[C@@H](C)CC[C@H]1c1ncc(-c2ccc(-c3ccc(-c4cnc([C@@H]5CC[C@H](C)N5C(=O)[C@@H](NC(=O)OC)[C@H]5C[C@@H](C)O[C@H](C6CC6)C5)[nH]4)cc3)cc2)[nH]1)[C@H]1C[C@@H](C)O[C@H](C2CC2)C1` [Example 9.4, dimethyl ((R,S,S,1S,1′S)-((2S,2′S,5S,5′S)-5,5′-(5,5′-([1,1′-biphenyl]-4,4′-diyl)bis(1H-imidazole-5,2-diyl))bis(2-methylpyrrolidine-5,1-diyl))bis(1-((2S,4S,6R)-2-cyclopropyl-6-methyltetrahydro-2H-pyran-4-yl)-2-oxoethane-2,1-diyl))dicarbamate], the EC50 under setting [2] came to 0.0093 nM and the EC50 under setting [3] was 0.00501 to 0.1 nM.
